The experiment deals with transgenic mice that express both human CETP and human apolipoprotein A-1. In words: Assay of plasma lipids in vivo (HDL cholesterol elevation). The following applies: single oral dose 30 mg/kg; 8 hr after dosing; serum HDL cholesterol relative to control; human CETP/human apoA-1 transgenic mice. The procedure: Assay of Plasma Lipids In Vivo
Activity of compounds of this invention in vivo can be determined by comparing the level of elevation of HDL cholesterol relative to control by a given amount of a compound in a CETP-containing animal species. A strain of transgenic mice that express both human CETP and human apolipoprotein A-1 (Taconic, Germantown, N.Y.) is used to test compounds of this invention. Test compounds are administered once orally in selected aqueous or oil based vehicles. At various times after dosing, ranging from 4 h to 24 h, blood is obtained. Blood is allowed to clot and serum is obtained by centrifugation. HDL cholesterol levels in the serum is determined by HDL-C plus reagents (Roche/Hitachi, Indianapolis, Ind.) with a clinical chemistry analyzer (Roche/Hitachi, Indianapolis, Ind.). Additional serum lipids can be analyzed by enzymatic methods. Lipids in the VLDL, LDL and HDL fractions are analyzed by enzymatic methods after precipitation or size exclusion chromatography.
Turning to `CC[C@@H]1C[C@H](N(Cc2cc(C(F)(F)F)cc(C(F)(F)F)c2)c2nnn(CCN)n2)c2nc(C(F)(F)F)ccc2N1C(=O)OC(C)C` [Example 15, (2R,4S)-cis-4-[[2-(2-Amino-ethyl)-2H-tetrazol-5-yl]-(3,5-bis-trifluoromethyl-benzyl)-amino]-2-ethyl-6-trifluoromethyl-3,4-dihydro-2H-[1,5]naphthyridine-1-carboxylic acid isopropyl ester], the “% HDL cholesterol increase” value came to 91%.
Consider `CC(C)OC(=O)N1c2ccc(C(F)(F)F)nc2C(N(Cc2cc(C(F)(F)F)cc(C(F)(F)F)c2)c2nnn(C)n2)CC1C1CC1` (racemic) [Example 52, (+/−)-cis-4-[(3,5-Bis-trifluoromethyl-benzyl)-(2methyl-2H-tetrazole-5-yl)-amino]-2-cyclopropyl-6-trifluoromethyl-3,4-dihydro-2H-[1,5]naphthyridine-1-carboxylic acid isopropyl ester], for which the “% HDL cholesterol increase” value turned out to be 66%.
Regarding `CC[C@H]1C[C@@H](N(Cc2cc(C(F)(F)F)cc(C(F)(F)F)c2)c2nnn(CCO)n2)c2nc(C(F)(F)F)ccc2N1C(=O)OC(C)C` (stereo in doubt) [Example 18, (2S,4R)-4-[(3,5-Bis-trifluoromethyl-benzyl)-[2-(2-hydroxy-ethyl)-2H-tetrazol-5-yl)-amino]-2-ethyl-6-trifluoromethyl-3,4-dihydro-2H-[1,5]naphthyridine-1-carboxylic acid isopropyl ester], the “% HDL cholesterol increase” value worked out at 187%.
For the compound `CC[C@@H]1C[C@H](N(Cc2cc(C(F)(F)F)cc(C(F)(F)F)c2)c2nnn(C)n2)c2nc(C(F)(F)F)ccc2N1C(=O)OC(C)C` [Example 11], the “% HDL cholesterol increase” value stood at 134%.
As for `CCC1CC(N(Cc2cc(C(F)(F)F)cc(C(F)(F)F)c2)c2nnn(C)n2)c2nc(OC)ccc2N1C(=O)OC(C)C` (racemic) [Example 8, (+/−)-cis-4-[(3,5-Bis-trifluoromethyl-benzyl)-2-methyl-2H-tetrazol-5-yl)-amino]-2-ethyl-6-methoxy-3,4-dihydro-2H-[1,5]naphthyridine-1-carboxylic acid isopropyl ester], the “% HDL cholesterol increase” value is recorded as 313%.

These data come from US7470705B2, “Compounds and methods for treating dyslipidemia” (Eli Lilly and Company, priority 2004, dated 2008).
